Assay results published in patent US10583127B2, “Amine salt of (1R, 3S)-3-(5-cyano-4-phenyl-1,3- thiazol-2-ylcarbamoyl)cyclopentane carboxylic acid” (PALOBIOFARMA, S.L., priority 2017, dated 2020).
“Also recorded” adds a separate entry of the source. Where two headings read alike, the source gives them in different places.

Key:
[1] = Oral bioavailability assay: plasma pharmacokinetics after single IV and PO administration; conditions: male SD rats
Description: (§1) Animals were divided into two groups: Group 1 (IV: 1 mg/kg) and Group 2 (PO: 5 mg/kg). […] The blood samples were collected from set of three rats at each time point in labeled micro centrifuge tube containing K2EDTA solution as anticoagulant at Pre-dose, 0.083, 0.25, 0.5, 1, 2, 4, 8 and 24 hr (IV) and Pre-dose, 0.25, 0.5, 1, 2, 4, 6, 8 and 24 hr (PO). Plasma samples were separated by centrifugation of whole blood and stored below −70±10° C. until bioanalysis. All samples were processed for analysis by protein precipitation using acetonitrile and analyzed with fit-for-purpose LC-MS/MS method (LLOQ=1.00 ng/ml). Pharmacokinetic parameters were calculated using the non-compartmental analysis tool of Phoenix WinNonlin® (Version 6.3).
(§2) AUC last refers to the area under the curve from the time of dosing to the time of last observation that is greater than the limit of quantitation.
(§3) Clearance refers to the measurement of the ability of the body to remove drug from the plasma, and is calculated from the intravenous dosing.
(§4) F % refers to the bioavailability. The systemic availability of a compound after oral administration is calculated using the following equation: F(%)=(AUClast PO×Dose IV/AUClast IV×Dose PO)×100

[2] = Stability study under forced conditions (one week at 40° C. and 70% RH, XRPD check); type: physicochemical
Description: Stability studies under forced conditions were carried out by keeping the product under study for one week at 40° C. and 70% RH. Salts were analyzed by XRPD to check any change in the crystalline form.

[3] = Hygroscopicity study by Dynamic Vapour Sorption (DVS) profiles; type: physicochemical; conditions: for moisture content at 25% RH / moisture content at 55% RH / moisture content at 75% RH (variation in the moisture content): DVS sorption isotherm at 25° C.
Description: Hygroscopicity studies of salts were carried out by preparation of Dynamic Vapour Sorption (DVS) profiles, with a TA instrument Q5000 apparatus. After an initial stabilization period (samples are pre-dried at 60° C. under vacuum), isotherms (at 25° C.) were obtained for each sample: a moisture sorption from 0 to 95% relative humidity (RH) and moisture desorption from 95% RH to dryness. Both isotherms were performed in 5% and 10% humidity steps.
The relative humidity (RH) was controlled by a mixture of wet and dry nitrogen stream. The RH was held constant until the equilibrium had been obtained (constant weight) or until the maximum time has been reached, before changing the RH to the next level.

in vivo = conditions: male, SD, rat
Description: as §1, §2, §3, §4

physchem = conditions: 37 °C, aqueous with cosolvent or surfactant or cyclodextrin, kinetic from dmso stock
Description: (§5) Solubility screen assays were carried out as following: stock solutions (10^−2M) of the assayed compounds were diluted to decreased molarity from 500 μM to 0.256 nM, in 384 well transparent plate (Greiner 781101) with 5% DMSO: 95% PBS buffer. Samples were incubated at 37° C. and read after 2 and 4 hours in a NEPHELOstar Plus (BMGLABTECH).

[4] = Solubility screen assay (nephelometry); conditions: 37° C.
Description: as §5

[5] = DVS, usual drug storage conditions (<75% RH)
[6] = listed as (1R-3S)-3-(5-cyano-4-phenyl-1,3-thiazol-2-ylcarbamoyl)cyclopentane carboxylic ac

Compound: CCNCC.N#Cc1sc(NC(=O)[C@H]2CC[C@@H](C(=O)O)C2)nc1-c1ccccc1 [Diethylammonium (1R,3S)-3-((5-cyano-4-phenylthiazol-2-yl)carbamoyl)cyclopentane-1-carboxylate]
- clearance ([1]; iv 1 mg/Kg): 5.02 mL/min/kg
- AUC last ([1]; iv 1 mg/Kg, plasma): 3383.00 ng·h/mL
- F % (bioavailability) ([1]; po 5 mg/Kg vs iv 1 mg/Kg, from AUClast): 68%
- AUC last ([1]; po 5 mg/Kg, plasma): 11580.30 ng·h/mL
- Cmax ([1]; po 5 mg/Kg, solution in normal saline, plasma): 5906.53 ng/mL
- stability under forced conditions (result in words) [2]: showed some degradation

Compound: Magnesium (1R,3S)-3-((5-cyano-4-phenylthiazol-2-yl)carbamoyl)cyclopentane-1-carboxylate
- hygroscopicity (result in words) [3]: very hygroscopic
- moisture content at 25% RH [3]: 4.929%
- moisture content at 55% RH [3]: 11.27%
- moisture content at 75% RH (variation in the moisture content) [3]: 18.11%
- moisture content at 75% RH (variation in the moisture content) ([3]; listed as magnesium salt): 18%

Compound: N#Cc1sc(NC(=O)[C@H]2CC[C@@H](C(=O)O)C2)nc1-c1ccccc1 [(1R,3S)-3-(5-cyano-4-phenyl-1,3-thiazol-2-ylcarbamoyl)cyclopentane carboxylic acid]
- AUC(0-t) ([1]; male, SD, rat, plasma, iv, 1 mg/kg, AUC last, iv 1 mg/Kg): 2200 ng·h/mL
- clearance ([1]; male, SD, rat, plasma, iv, 1 mg/kg, Clearance, iv 1 mg/Kg): 6.3 mL/min/kg

Compound: N#Cc1sc(NC(=O)[C@H]2CC[C@@H](C(=O)[O-])C2)nc1-c1ccccc1.[Na+] [Sodium (1R,3S)-3-((5-cyano-4-phenylthiazol-2-yl)carbamoyl)cyclopentane-1-carboxylate]
- AUC(0-t) (in vivo; iv, 1 mg/kg): 5090 ng·h/mL
- clearance (in vivo; iv, 1 mg/kg): 3.31 mL/min/kg
- AUC(0-t) (in vivo; po, 5 mg/kg): 21600 ng·h/mL
- Cmax (in vivo; po, 5 mg/kg): 13200 ng/mL
- bioavailability (in vivo; po, 5 mg/kg): 85%
- stability under forced conditions (result in words) [2]: did not have good stability, changed color
- hygroscopicity (result in words) [3, 5]: showed evident hygroscopicity
- solubility (physchem): 36.3 µM

Compound: N#Cc1sc(NC(=O)[C@H]2CC[C@@H](C(=O)O)C2)nc1-c1ccccc1 [(1R,3S)-3-(5-cyano-4-phenyl-1,3-thiazol-2-ylcarbamoyl)cyclop] [1,3-dihydroxy-2-(hydroxymethyl)propan-2-aminium (1R,3S)-3-((5-cyano-4-phenylthiazol-2-yl)carbamoyl)cyclopentane-1-carboxylate]
- AUC last ([1]; iv 1 mg/Kg, plasma, 1 mg/kg): 2373.87 ng·h/mL
- clearance ([1]; iv 1 mg/Kg, 1 mg/kg): 7.11 mL/min/kg
- stability under forced conditions (result in words) [2]: no cristallinity changes, colour or any other change in the aspect were observed; also recorded: stable solid, even under forced stability conditions
- solubility compared with other salts and free acid [4]: higher solubility compared to others salts
- moisture content at 25% RH [3, 6]: 0.0722%
- moisture content at 55% RH [3, 6]: 0.1165%
- moisture content at 75% RH (variation in the moisture content) [3, 6]: 0.2096%
- moisture content at 75% RH (variation in the moisture content) ([3]; listed as tromethamine salt): 0.17%
- hygroscopicity (result in words) [3, 5]: less hygroscopic than the free acid form
- hygroscopicity (result in words) ([3]; DVS, usual drug storage conditions (<75% RH), listed as tromethamine salt): less hygroscopic than free acid

Compound: N#Cc1sc(NC(=O)[C@H]2CC[C@@H](C(=O)O)C2)nc1-c1ccccc1 [(1R,3S)-3-(5-cyano-4-phenyl-1,3-thiazol-2-ylcarbamoyl)cyclop] [(1R,3S)-3-(5-cyano-4-phenyl-1,3-thiazol-2-ylcarbamoyl)cyclopentane carboxylic acid]
- moisture content at 25% RH [3]: 0.1283%
- moisture content at 55% RH [3]: 0.3008%
- moisture content at 75% RH (variation in the moisture content) [3]: 0.4369%
- moisture content at 75% RH (variation in the moisture content) ([3]; listed as free acid): 0.43%
- hygroscopicity (result in words) [3, 5]: exhibits certain levels of hygroscopicity
